Results published in patent US20050221475A1, “Cell culture procedures for inducing a neuronal phenotype in insect cells” (priority 2004, published 2005).

Columns and labels:
[1] = test system: continuous cell lines of the Beet Armyworm, Spodoptera exigua; settings: cell proliferation assay; cited from earlier work
Drosophila Kc-H line = settings: cited from earlier work
[2] = test system: Aedes aegypti established cell line; settings: 2 days exposure to 3×10^−7 M; cited from earlier work
Sf21 cells [3] = experiment: Sf21 cell culture: morphology and count of cells displaying processes (transformants); format: cell-based, Spodoptera frugiperda
Sf21 cells [4] = format: cell-based, Spodoptera frugiperda
[5] = test system: acetylcholinesterase (ACHE); settings: 10^−6 M; cited from earlier work

Compound: Cc1c(COC(=O)[C@@H]2[C@H](/C=C(\Cl)C(F)(F)F)C2(C)C)cccc1-c1ccccc1 (racemic) [bifenthrin]
- activity in undifferentiated cells [1]: low activity

Compound: CC(C)(O)CC[C@@H](O)[C@](C)(O)[C@H]1CC[C@@]2(O)C3=CC(=O)[C@@H]4C[C@@H](O)[C@@H](O)C[C@]4(C)[C@H]3CC[C@]12C [20-hydroxyecdysone]
- concentration at which cells extend long processes and acquire acetylcholinesterase activity (Drosophila Kc-H line): greater than or equal to 10^−8 molar
- stimulation of AChE activity [2]: 2 fold
- increase in the number of cells showing one or more processes (Sf21 cells [3]; 20 μg/ml, counted 2 days after treatment, vs control, n=8): ~30 fold
- effect on cell morphology (Sf21 cells [3]; TNM-FH medium supplemented with 10 μg/ml, 48 hours after passage (FIG. 2)): numerous cells assume the appearance of monopolar neurons, with prominent axon-like structures

Compound: NC1=N[C@H](O)[C@H]2[C@H]3O[C@]4(O)O[C@@H]([C@@H](O)[C@@]2(N1)[C@@H]4O)[C@]3(O)CO [TTX, tetrodotoxin]
- effect on veratridine-induced increase in transformants (Sf21 cells [4]): blocked

Compound: CNC(=O)Oc1ccc2c(c1)[C@]1(C)CCN(C)[C@@H]1N2C.CNC(=O)Oc1ccc2c(c1)[C@]1(C)CCN(C)[C@@H]1N2C.O=S(=O)(O)O [serine sulfate]
- effect on enzyme (AChE) [5]: blocked

Compound: COc1ccc(C(=O)O[C@H]2CC[C@@]3(C)[C@@H]4CC[C@H]5[C@]6(O)C[C@H](O)[C@@]7(O)[C@@H](CN8C[C@@H](C)CC[C@H]8[C@@]7(C)O)[C@]6(O)C[C@@]53O[C@]24O)cc1OC [veratridine]
- increase in the number of transformants (Sf21 cells [4]): ~3 fold

Compound: nerve growth factor: nerve growth factor (NGF)
- effect on cell morphology (Sf21 cells [3]; 20 μg/ml NGF, 48 hours after passage (FIG. 5)): does not induce any similar morphological changes
